From article PMC5224920, “Assessing the mechanism and therapeutic potential of modulators of the human Mediator complex-associated protein kinases” (eLife, 2016)

Assays:
protein kinases = assay: Kinase selectivity panel at 1 µM; format: biochemical; conditions: 1µM test compound
plasma cytokines (IL-12) = assay: Rat plasma Th1/Th2 cytokine measurement; format: in vivo; conditions: Wistar rats, 5 – 20 mg/kg po qd; p<0.005
Protocol: Lithium-heparin-plasma (120 µL) was taken from each non-fasted animal on day 1 pre-dose and on days 3 and 14 pre-dose and also 2 hr after the last treatment. The rat Th1/Th2 multiPlex bead immunoassay panel (Invitrogen) was used to generate calibration curves and to measure cytokine (IL-1α, IL-1β, IL-2, IL-4, IL-6, IL-10, IL-12, IFNγ, gmCSF and TNFα) levels (Luminex, Austin, Texas, USA).

DLD1 = assay: 14 d colony growth assay, DLD1; format: cell-based, human; conditions: 350 nM, mean (range), n = 2
SW948 = assay: 14 d colony growth assay, SW948; format: cell-based, human; conditions: 350 nM, mean (range), n = 2
HT29 = assay: 14 d colony growth assay, HT29; format: cell-based, human; conditions: 350 nM, mean (range), n = 2
CDK19 = target: T1, CDK19 (Homo sapiens, UniProt Q9BWU1); assay: CDK19 reporter displacement assay; format: binding
T1 construct: purchased Proteros Biostructures GmbH (Germany), assay service

Caco-2 permeability = format: in vitro ADME; conditions: human
[1] = test system: p-STAT1^SER727 in LS1034 colorectal cancer xenografts; assay: p-STAT1 SER727 level in LS1034 xenografts (pharmacodynamics); format: in vivo, human; conditions: 2 hr post-treatment
GSK3α = GSK3α (Homo sapiens, UniProt P49840); assay: Off-target kinase IC50, GSK3α; format: biochemical
7dF3 = 7dF3 inducible WNT-pathway luciferase reporter; conditions: 7dF3, read-out: 7dF3 IC50
RKO = assay: 14 d colony growth assay, RKO; format: cell-based, human; conditions: 350 nM, mean (range), n = 2
CDK8 = CDK8 (Homo sapiens, UniProt P49336); assay: CDK8 binding (Lanthascreen binding competition / reporter displacement assay)
Sequence of CDK8 (P49336 whole entry): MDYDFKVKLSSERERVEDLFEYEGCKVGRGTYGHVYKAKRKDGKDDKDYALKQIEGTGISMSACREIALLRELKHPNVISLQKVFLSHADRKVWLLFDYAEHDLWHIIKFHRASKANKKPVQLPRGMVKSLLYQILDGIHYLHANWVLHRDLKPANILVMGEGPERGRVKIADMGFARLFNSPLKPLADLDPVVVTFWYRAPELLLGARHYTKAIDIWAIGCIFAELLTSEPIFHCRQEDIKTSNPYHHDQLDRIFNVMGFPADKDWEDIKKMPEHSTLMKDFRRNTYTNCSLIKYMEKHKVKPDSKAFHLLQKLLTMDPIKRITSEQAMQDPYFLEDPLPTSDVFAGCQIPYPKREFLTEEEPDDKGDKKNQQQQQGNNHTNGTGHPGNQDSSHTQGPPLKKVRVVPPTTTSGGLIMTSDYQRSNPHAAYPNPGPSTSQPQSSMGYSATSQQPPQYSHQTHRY
Sequence of CDK8 (P24863 whole entry partner): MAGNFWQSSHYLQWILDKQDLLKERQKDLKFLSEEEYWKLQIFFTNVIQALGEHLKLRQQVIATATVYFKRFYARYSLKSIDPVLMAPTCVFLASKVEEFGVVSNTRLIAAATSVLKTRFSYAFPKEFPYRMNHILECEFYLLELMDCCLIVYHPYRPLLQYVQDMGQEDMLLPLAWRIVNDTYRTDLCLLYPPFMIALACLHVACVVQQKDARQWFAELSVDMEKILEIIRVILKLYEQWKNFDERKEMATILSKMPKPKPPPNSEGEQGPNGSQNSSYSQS

Sequence of GSK3α (P49840 whole entry, species assumed): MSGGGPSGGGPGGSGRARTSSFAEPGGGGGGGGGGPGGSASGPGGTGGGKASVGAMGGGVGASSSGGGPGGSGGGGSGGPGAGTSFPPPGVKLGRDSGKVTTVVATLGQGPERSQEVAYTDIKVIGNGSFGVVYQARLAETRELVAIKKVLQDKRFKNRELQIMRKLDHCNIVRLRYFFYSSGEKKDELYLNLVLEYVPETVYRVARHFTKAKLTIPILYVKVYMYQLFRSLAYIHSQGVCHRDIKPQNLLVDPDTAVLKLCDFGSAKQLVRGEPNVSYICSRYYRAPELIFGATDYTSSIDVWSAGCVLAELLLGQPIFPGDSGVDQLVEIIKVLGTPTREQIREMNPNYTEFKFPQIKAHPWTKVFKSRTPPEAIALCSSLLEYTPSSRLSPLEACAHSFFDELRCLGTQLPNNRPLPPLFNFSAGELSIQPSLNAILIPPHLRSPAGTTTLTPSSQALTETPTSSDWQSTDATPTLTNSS
T1 sequence (Q9BWU1 whole entry): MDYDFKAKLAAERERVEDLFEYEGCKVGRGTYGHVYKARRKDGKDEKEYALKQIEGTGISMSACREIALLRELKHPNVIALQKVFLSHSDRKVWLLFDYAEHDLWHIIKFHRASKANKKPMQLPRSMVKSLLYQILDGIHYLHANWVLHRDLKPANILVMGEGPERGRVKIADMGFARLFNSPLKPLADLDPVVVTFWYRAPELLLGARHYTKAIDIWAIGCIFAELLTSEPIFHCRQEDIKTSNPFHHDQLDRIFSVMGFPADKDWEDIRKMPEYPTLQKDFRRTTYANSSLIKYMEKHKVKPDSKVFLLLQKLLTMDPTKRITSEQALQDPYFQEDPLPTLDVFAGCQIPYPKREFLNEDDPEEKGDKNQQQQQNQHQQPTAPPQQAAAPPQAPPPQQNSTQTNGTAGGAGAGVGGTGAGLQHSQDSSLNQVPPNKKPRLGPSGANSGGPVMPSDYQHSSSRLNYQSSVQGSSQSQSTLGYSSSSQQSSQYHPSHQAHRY
T1 sequence (P24863 whole entry partner): as the sequence (P24863 whole entry partner) above

**Q.** Which results are given for `Cn1ncc2cc(-c3cnc(N)c(Cl)c3N3CCC4(CCNC4=O)CC3)ccc21` [CMPD 3]?
**A.** Off-target activities in protein kinase panel (protein kinases): No off-target activities were detected; Plasma IL-12 level (plasma cytokines (IL-12)): increased significantly

**Q.** Which “14 d colony growth (relative to control)” value (DLD1) does the source give for `Cc1n[nH]c2ncc(C(=O)N3CCC[C@H]3c3ccc(Cl)cc3)cc12` [CMPD 4] here?
**A.** 0.66 (0.07)

**Q.** And the “14 d colony growth (relative to control)” value (SW948)?
**A.** 0.13 (0.02)

**Q.** And the “14 d colony growth (relative to control)” value (HT29)?
**A.** 0.43 (0.01)

**Q.** And the IC50 (CDK19)?
**A.** 3.8 ± 0.4 nM

**Q.** And the efflux ratio (Caco-2 permeability)?
**A.** 1.49

**Q.** And the “Decrease of p-STAT1^SER727” value [1]?
**A.** 58%

**Q.** What about the “p-STAT1^SER727 value normalised to total STAT1 levels” value ([1]; n = 4, mean ± s.e.m, control 1719 ± 174) of the same molecule?
**A.** 719 ± 46

**Q.** And the IC50 (GSK3α)?
**A.** 691 nM

**Q.** And the IC50 (7dF3)?
**A.** 5.3 ± 2 nM

**Q.** And the “14 d colony growth (relative to control)” value (RKO)?
**A.** 0.98 (0.07)

**Q.** And the IC50 (CDK8)?
**A.** 4.4 ± 0.3 nM
